The GI50 is the concentration that inhibits growth by half.

Structures are written as SMILES.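 Compound exposure: 48 hours, 5 concentrations, 96-well plates. At the GI50, growth is halved.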 Active and inactive are the calls of the source. Rule as the data show it: active = GI50 up to about 1.1 µM and inactive = higher. Peptide text beside a SMILES is read from it. * marks the point of attachment. Boc = CC(C)(C)OC(=O)*; OtBu = CC(C)(C)O*

We go through eleven molecules from ChEMBL document CHEMBL1201862, “PubChem BioAssay data set” (2004).

Among the test systems are SK-MEL-2; Hs-578T; SK-MEL-5; OVCAR-5; SF-539; PC-3; RPMI-8226; M14; HCT-15; NCI-H226; SNB-19; UACC-62; NCI-H460; COLO 205; UACC-257; Malme-3M; LOX IMVI; A498; OVCAR-3; HL-60.
Assay in all cases: DTP human tumour cell line panel, 48 h

With `CC(=O)OC1CCC2(C)C(CCC3C2CC(=O)C2(C)C3CC(N3CC3)C2C(C)=O)C1` (stereo not given), the GI50 in the assay on SK-MEL-2 was 17.5 µM (inactive); in the assay on Hs-578T it was 15.1 µM (inactive); in the assay with SK-MEL-5, 15.2 µM (inactive); in the assay on OVCAR-5, 37.4 µM (inactive); with SF-539, 11.8 µM (inactive); in the assay with PC-3, 14.1 µM (inactive). The GI50 with RPMI-8226 was 18 µM (inactive); with M14, 20.2 µM (inactive); with HCT-15 it was 18.9 µM; with NCI-H226, 19.1 µM (inactive); with SNB-19 it was 20.9 µM (inactive); in the assay with UACC-62 it was 16.2 µM (inactive). For the same molecule, the GI50 in the assay with NCI-H460 is 12.4 µM (inactive); in the assay on COLO 205 it was 15.8 µM (inactive); with UACC-257, 17.3 µM (inactive); with Malme-3M it was 18.7 µM (inactive); with LOX IMVI it was 5.33 µM (inactive); in the assay with A498 it was 19.6 µM (inactive). Moreover, the GI50 with OVCAR-3 was 26.2 µM (inactive).
As for `c1ccc(C2(c3cc4ccccc4[nH]3)OCCO2)nc1`, the GI50 in the assay on SK-MEL-2, with Hs-578T, in the assay on SK-MEL-5, in the assay with OVCAR-5, in the assay with SF-539 and in the assay with PC-3 was > 100 µM (inactive) each time. Besides, the GI50 in the assay with M14 was > 100 µM (inactive); in the assay on HCT-15 it was over 100 µM; with NCI-H226 it was > 100 µM (inactive); in the assay with SNB-19, > 100 µM (inactive); in the assay with UACC-62 it was > 100 µM (inactive); in the assay with HL-60, > 100 µM (inactive). For the same molecule, the GI50 in the assay on NCI-H460, with COLO 205, in the assay on UACC-257, with Malme-3M, in the assay on LOX IMVI and in the assay with A498 was > 100 µM (inactive) each time. The GI50 in the assay with OVCAR-3 was > 100 µM (inactive).
As to `Cc1cn(C2OC(CO[Si](C)(C)C(C)(C)C)/C(=C\C#N)C2O[Si](C)(C)C(C)(C)C)c(=O)[nH]c1=O` (stereo not given), the GI50 with SK-MEL-2 was 8.73 µM (inactive); in the assay with Hs-578T it was > 100 µM (inactive); with SK-MEL-5 it was 6.87 µM (inactive); in the assay on OVCAR-5, > 100 µM (inactive); in the assay with SF-539 it was 6.75 µM (inactive); in the assay with PC-3, 3.83 µM (inactive). For the same molecule, the GI50 with RPMI-8226 was > 100 µM (inactive); with M14 it was > 100 µM (inactive); with HCT-15, 14.4 µM; in the assay on NCI-H226 it was > 100 µM (inactive); in the assay on SNB-19 it was > 100 µM (inactive); in the assay with UACC-62 it was 44.4 µM (inactive). For the same molecule, the GI50 in the assay on NCI-H460 is 8.83 µM (inactive); with COLO 205, 12.5 µM (inactive); with UACC-257, 63.5 µM (inactive); in the assay on LOX IMVI it was 19.5 µM (inactive); in the assay on A498, > 100 µM (inactive); in the assay on OVCAR-3 it was 7.73 µM (inactive).
With `Cc1cccnc1N/C=C1\C(=O)NC(=O)N(C)C1=O`, the GI50 in the assay with SK-MEL-2, with Hs-578T, with SK-MEL-5, in the assay on OVCAR-5, with SF-539 and with PC-3 was > 100 µM (inactive) in each case. Also, the GI50 is > 100 µM (inactive) in the assay on M14; over 100 µM with HCT-15; > 100 µM (inactive) in the assay with NCI-H226; > 100 µM (inactive) in the assay with SNB-19; > 100 µM (inactive) in the assay with UACC-62; > 100 µM (inactive) in the assay on HL-60. Also, the GI50 with NCI-H460 is > 100 µM (inactive); with COLO 205, > 100 µM (inactive); in the assay on UACC-257, > 100 µM (inactive); in the assay with Malme-3M it was 13 µM (inactive); in the assay with LOX IMVI, 93.8 µM (inactive); with A498, 12.3 µM (inactive). Moreover, the GI50 in the assay on OVCAR-3 is > 100 µM (inactive).
In the case of `Cc1ccc(C2SC(=N)Nc3c2c(C)nn3C(=O)c2ccccc2O)cc1` (stereo not given), the GI50 with SK-MEL-2 is 6.31 µM (inactive); with Hs-578T, 1.51 µM (inactive); in the assay with SK-MEL-5, 4.37 µM (inactive); with OVCAR-5 it was > 10 µM (inactive); in the assay on SF-539, 5.68 µM (inactive); with PC-3, > 10 µM (inactive). The GI50 with RPMI-8226 was > 10 µM (inactive); in the assay on M14, > 10 µM (inactive); with HCT-15 it was over 10 µM; in the assay with NCI-H226, > 10 µM (inactive); with SNB-19, > 10 µM (inactive); with UACC-62, 1.41 µM (inactive). Also, the GI50 was 7.57 µM (inactive) with NCI-H460; > 10 µM (inactive) with COLO 205; > 10 µM (inactive) in the assay with UACC-257; > 10 µM (inactive) in the assay with Malme-3M; > 10 µM (inactive) in the assay with LOX IMVI; 3.59 µM (inactive) in the assay on A498. Also, the GI50 with OVCAR-3 was > 10 µM (inactive).
Regarding `CC(C)(C)OC(=O)CC(NC(=O)OC(C)(C)C)C(=O)NC(Cc1ccccc1)C(N)=O` (stereo not given) (Boc-Asp(OtBu)-Phe-NH2; configuration not given here), the GI50 with SK-MEL-2, in the assay with Hs-578T, in the assay on SK-MEL-5, in the assay on OVCAR-5, with SF-539 and in the assay on PC-3 was > 100 µM (inactive) throughout. For the same molecule, the GI50 with RPMI-8226 was > 100 µM (inactive); with M14 it was > 100 µM (inactive); with HCT-15 it was over 100 µM; with NCI-H226, > 100 µM (inactive); in the assay with SNB-19 it was > 100 µM (inactive); in the assay on NCI-H460 it was > 100 µM (inactive). In addition, the GI50 with COLO 205, in the assay with UACC-257, in the assay with Malme-3M, in the assay with LOX IMVI, in the assay with A498 and in the assay on OVCAR-3 was > 100 µM (inactive) throughout.
Turning to `O=S(=O)(O)c1cccc2cccc(/N=N/c3c(O)ccc4ccccc34)c12`, the GI50 in the assay on SK-MEL-2, with Hs-578T, in the assay with SK-MEL-5, in the assay with OVCAR-5, in the assay on SF-539 and in the assay on PC-3 was > 100 µM (inactive) throughout. Besides, the GI50 in the assay with M14 was > 100 µM (inactive); with HCT-15, over 100 µM; in the assay with NCI-H226, > 100 µM (inactive); in the assay with SNB-19, > 100 µM (inactive); with UACC-62 it was > 100 µM (inactive); with HL-60, > 100 µM (inactive). Moreover, the GI50 in the assay with NCI-H460, in the assay on COLO 205, with UACC-257, with Malme-3M, in the assay with A498 and with OVCAR-3 was > 100 µM (inactive) each time.
On to `Cc1nn(C(=O)c2ccccc2O)c2c1C(c1ccc3ccccc3c1O)SC(=N)N2` (stereo not given), for which the GI50 in the assay on SK-MEL-2 is 4.39 µM (inactive); in the assay with Hs-578T it was 1.7 µM (inactive); in the assay with SK-MEL-5, 1.63 µM (inactive); in the assay on OVCAR-5, 7.19 µM (inactive); in the assay on SF-539, 4.53 µM (inactive); in the assay with PC-3, 3.66 µM (inactive). Further, the GI50 was 4.34 µM (inactive) with RPMI-8226; 6.21 µM (inactive) in the assay on M14; 4.26 µM in the assay with HCT-15; 2.65 µM (inactive) in the assay with NCI-H226; 8.61 µM (inactive) in the assay on SNB-19; 1.77 µM (inactive) with UACC-62. Also, the GI50 with NCI-H460 is 5.53 µM (inactive); in the assay with COLO 205 it was 2.4 µM (inactive); in the assay on UACC-257, 3.53 µM (inactive); with Malme-3M, > 10 µM (inactive); with LOX IMVI, 3.75 µM (inactive); in the assay on A498, 6.47 µM (inactive). Moreover, the GI50 in the assay with OVCAR-3 was 2.69 µM (inactive).
Take `CCOc1ccc(N/C(Cl)=C(Cl)\C(=C(\Nc2ccc(OCC)cc2)n2nnc3ccccc32)[N+](=O)[O-])cc1`: the GI50 was 16.7 µM (inactive) in the assay on SK-MEL-2; 2.58 µM (inactive) in the assay with Hs-578T; 8.49 µM (inactive) in the assay on SK-MEL-5; 9.44 µM (inactive) in the assay with OVCAR-5; 4.2 µM (inactive) in the assay with SF-539; 7.4 µM (inactive) in the assay on PC-3. Also, the GI50 with RPMI-8226 was 4.18 µM (inactive); in the assay with M14, 4.75 µM (inactive); in the assay with HCT-15, 1.91 µM; in the assay on NCI-H226 it was 19.4 µM (inactive); in the assay on SNB-19 it was 17.4 µM (inactive); in the assay on UACC-62, 15.7 µM (inactive). The GI50 with NCI-H460 was 24.7 µM (inactive); in the assay on COLO 205, 7.38 µM (inactive); with UACC-257 it was 8.3 µM (inactive); in the assay with Malme-3M it was 2.32 µM (inactive); in the assay on LOX IMVI it was 1.65 µM (inactive); with A498 it was 20.4 µM (inactive). Also, the GI50 in the assay on OVCAR-3 is 4.12 µM (inactive).
In the case of `C=C1CC23CCC4C(C)(C(=O)O)CCCC4(C)C2CCC1C3` (stereo not given), the GI50 with SK-MEL-2 is 42.3 µM (inactive); in the assay with Hs-578T, 44.3 µM (inactive); in the assay on OVCAR-5 it was 95.3 µM (inactive); in the assay with SF-539, 74 µM (inactive); in the assay on PC-3, 37.7 µM (inactive); with RPMI-8226 it was 47.4 µM (inactive). The GI50 was 56 µM (inactive) with M14; 36.2 µM in the assay with HCT-15; 55.7 µM (inactive) with NCI-H226; 53.1 µM (inactive) in the assay with SNB-19; 52.4 µM (inactive) with UACC-62; 21 µM (inactive) with NCI-H460. The GI50 in the assay with COLO 205 was 19.7 µM (inactive); with UACC-257, 36.8 µM (inactive); in the assay with Malme-3M, 94 µM (inactive); in the assay on LOX IMVI it was 30.7 µM (inactive); in the assay on A498, 39.5 µM (inactive); with OVCAR-3, 30.4 µM (inactive).
On to `CCCCCCc1cc2cc(C(=O)Nc3cccc(F)c3)c(=N)oc2cc1O`, for which the GI50 is 2.16 µM (inactive) with SK-MEL-2; 2.21 µM (inactive) in the assay with Hs-578T; 1.4 µM (inactive) in the assay on SK-MEL-5; 3.6 µM (inactive) in the assay with OVCAR-5; 3.26 µM (inactive) with SF-539; 3.21 µM (inactive) with PC-3. The GI50 in the assay with RPMI-8226 was 1.62 µM (inactive); with M14 it was 3.15 µM (inactive); in the assay with HCT-15 it was 2.31 µM; in the assay on SNB-19, 3.55 µM (inactive); with UACC-62, 1.94 µM (inactive); with HL-60 it was 2.36 µM (inactive). The GI50 was 3.19 µM (inactive) with NCI-H460; 14.6 µM (inactive) in the assay with COLO 205; 2.99 µM (inactive) with UACC-257; 2.31 µM (inactive) in the assay with Malme-3M; 1.67 µM (inactive) in the assay on LOX IMVI; 3.02 µM (inactive) with A498. Also, the GI50 in the assay on OVCAR-3 was 4.19 µM (inactive).
